US6881741B2 (ViroChem Pharma Inc., priority 2001, dated 2005)
pIC50: −log10 of the molar value.

Each compound was assayed against recombinant HCV NS5B (HCV RNA-dependent RNA polymerase) (Hepatitis C virus genotype 1b, UniProt P26663) (assay: biochemical). Conditions: HCV polymerase activity, list of compounds of Example 27; read-out: IC50 (polymerase activity).
recombinant HCV NS5B (HCV RNA-dependent RNA polymerase), sequence (P26663 2420-3010 limits assumed): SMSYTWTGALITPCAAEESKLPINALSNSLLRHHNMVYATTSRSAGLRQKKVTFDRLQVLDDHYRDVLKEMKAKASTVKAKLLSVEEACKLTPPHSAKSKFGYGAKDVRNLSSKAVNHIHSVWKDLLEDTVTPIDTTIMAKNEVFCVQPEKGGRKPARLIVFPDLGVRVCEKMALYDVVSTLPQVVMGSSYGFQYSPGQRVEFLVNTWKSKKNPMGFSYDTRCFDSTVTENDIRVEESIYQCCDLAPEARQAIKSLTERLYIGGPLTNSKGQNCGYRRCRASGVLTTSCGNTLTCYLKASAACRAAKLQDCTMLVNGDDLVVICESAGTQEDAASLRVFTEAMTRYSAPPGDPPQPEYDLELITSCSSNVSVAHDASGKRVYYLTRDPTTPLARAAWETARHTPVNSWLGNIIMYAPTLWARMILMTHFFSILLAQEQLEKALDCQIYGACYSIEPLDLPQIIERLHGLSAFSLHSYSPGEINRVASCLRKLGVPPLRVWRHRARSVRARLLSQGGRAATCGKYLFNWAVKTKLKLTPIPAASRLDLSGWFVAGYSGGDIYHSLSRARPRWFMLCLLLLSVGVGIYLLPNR
In the case of `O=C(O)c1sc(-c2ccccc2)cc1N(C(=O)c1ccc(Cl)cc1Cl)C1CCCC[C@@H]1O` (stereo in doubt) [Compound 538, 3-[(2,4-DICHLORO-BENZOYL)-(2- HYDROXY-CYCLOHEXYL)-AMINO]-5- PHENYL-THIOPHENE-2-CARBOXYLIC ACID], the pIC50 was greater than 5.30. Compound `O=C(O)c1sc(-c2ccccc2)cc1N(C(=O)c1ccc(Cl)cc1Cl)C1CC[C@@H](C(=O)O)C1` (stereo in doubt) [Compound 547, 3-[(3-CARBOXY-CYCLOPENTYL)-(2,4- DICHLORO-BENZOYL)-AMINO]-5- PHENYL-THIOPHENE-2-CARBOXYLIC ACID] has a pIC50 greater than 5.30. Compound `CC([C@H](O[Si](C)(C)C(C)(C)C)c1ccccc1)N(C(=O)c1ccc(Cl)cc1Cl)c1cc(-c2ccccc2)sc1C(=O)O` (stereo in doubt) [Compound 556, 3-[[2-(TERT-BUTYL-DIMETHYL- SILANYLOXY)-1-METHYL-2-PHENYL- ETHYL]-(2,4-DICHLORO-BENZOYL)- AMINO]-5-PHENYL-THIOPHENE-2- CARBOXYLIC ACID] has a pIC50 of 4.70 to 5.30.

Same assay, conditions: related polymerase activity (Example 27 list); read-out: IC50
Work on `Cc1cc(S(=O)(=O)N(Cc2cccc(I)c2)c2cc(-c3ccccc3)sc2C(=O)O)c(C)cc1Cl` [Compound 1, 3-[(4-CHLORO-2,5-DIMETHYL-BENZENESULFONYL)-(3-IODO-BENZYL)-AMINO]-5-PHENYL-THIOPHENE-2-CARBOXYLIC ACID] yielded a pIC50 of 4.70 to 5.30. In the case of `Cc1cc(S(=O)(=O)N(Cc2cccc(-c3cc4ccccc4o3)c2)c2cc(-c3ccccc3)sc2C(=O)O)c(C)cc1Cl` [Compound 2, 3-[(3-BENZOFURAN-2-YL-BENZYL)-(4-CHLORO-2,5-DIMETHYL-BENZENESULFONYL)-AMINO]-5-PHENYL-THIOPHENE-2-CARBOXYLIC ACID], the pIC50 was 4.70 to 5.30. For `Cc1cc(S(=O)(=O)Nc2cc(-c3ccccc3)sc2C(=O)O)c(C)cc1Cl` [Compound 3, 3-(4-CHLORO-2,5-DIMETHYL-BENZENESULFONYLAMINO)-5-PHENYL-THIOPHENE-2-CARBOXYLIC ACID], the pIC50 was 4.70 to 5.30. For `O=C(O)c1sc(-c2ccccc2)cc1N(Cc1ccc(-c2cccc(C(F)(F)F)c2)o1)C(=O)c1ccc(Cl)cc1Cl` [Compound 4, 3-{(2,4-DICHLORO-BENZOYL)-[5-(3-TRIFLUOROMETHYL-PHENYL)-FURAN-2-YLMETHYL]-AMINO}-5-PHENYL-THIOPHENE-2-CARBOXYLIC ACID], the pIC50 was greater than 5.30. Compound `Cc1cc(S(=O)(=O)N(C)c2cc(-c3ccccc3)sc2C(=O)O)c(C)cc1Cl` [Compound 5, 3-[(4-CHLORO-2,5-DIMETHYL-BENZENESULFONYL)-METHYL-AMINO]-5-PHENYL-THIOPHENE-2-CARBOXYLIC ACID] has a pIC50 of 4.70 to 5.30. Compound `Cc1ccc(S(=O)(=O)Nc2cc(-c3ccc(F)cc3)sc2C(=O)O)cc1` [Compound 6, 5-(4-FLUORO-PHENYL)-3-(TOLUENE-4-SULFONYLAMINO)-THIOPHENE-2-CARBOXYLIC ACID] has a pIC50 greater than 5.30. `O=C(O)c1sc(-c2ccccc2)cc1NS(=O)(=O)c1ccc(Cl)cc1Cl` [Compound 7, 3-(2,4-DICHLORO-BENZENESULFONYLAMINO)-5-PHENYL-THIOPHENE-2-CARBOXYLIC ACID] showed a pIC50 greater than 5.30. In the case of `Cc1cc(S(=O)(=O)Nc2cc(-c3ccc(F)cc3)sc2C(=O)O)c(C)cc1Cl` [Compound 8, 3-(4-CHLORO-2,5-DIMETHYL-BENZENESULFONYLAMINO)-5-(4-FLUORO-PHENYL)-THIOPHENE-2-CARBOXYLIC ACID], the pIC50 was greater than 5.30. For `CN(C(=O)c1ccc(Cl)cc1Cl)c1cc(-c2ccccc2)sc1C(=O)O` [Compound 9, 3-[(2,4-DICHLORO-BENZOYL)-METHYL-AMINO]-5-PHENYL-THIOPHENE-2-CARBOXYLIC ACID], the pIC50 was greater than 5.30. `CC(C)(C)c1cc(NS(=O)(=O)c2ccc(Cl)cc2)c(C(=O)O)s1` [Compound 10, 5-TERT-BUTYL-3-(4-CHLORO-BENZENESULFONYLAMINO)-THIOPHENE-2-CARBOXYLIC ACID] gave a pIC50 greater than 5.30. `Cc1ccc(S(=O)(=O)Nc2cc(-c3ccsc3)sc2C(=O)O)cc1` [Compound 11, 4-(TOLUENE-4-SULFONYLAMINO)-[2,3′]BITHIOPHENYL-5-CARBOXYLIC ACID] showed a pIC50 of 4.70 to 5.30.
